Values after ≈ are worked out from the molar mass of the structure shown.
Columns and labels:
[1] = system: Du-145 (prostate); experiment: SRB antiproliferative assay on Du-145 cells; type: cell-based, human; details: Homo sapiens, DU-145; SRB assay
Description: (§1) The applied human cell lines such as MV-4-11 (biphenotypic B myelomonocytic leukaemia), A549 (lung adenocarcinoma), Du-145 (prostate), Hs294T (melanoma), MCF-7 (breast adenocarcinoma) and MCF-10A (normal mammary gland) were obtained from the American Type Culture Collection (ATCC, Rockville, MD, USA). The all cell lines are maintained at the Cell Culture Collection of the Institute of Immunology and Experimental Therapy (Wrocław, Poland). The cells were plated in 96-well plates (Sarstedt, Newton, MA, USA) at a density of 1 × 10^4 cells per well in 100 µL of appropriate culture medium overnight. Biphenotypic B myelomonocytic leukaemia (MV-4-11) cells were cultured in RPMI 1640 medium (Gibco, Scotland, UK) with GlutaMAX (Thermo-Fisher Scientific, Warsaw, Poland) adjusted to contain 1.0 mM sodium pyruvate (Sigma-Aldrich, Chemie GmbH, Steinheim, Germany). Human lung adenocarcinoma (A549) cells were cultured in mixture RPMI 1640 and Opti-MEM medium (Gibco, Scotland, UK) supplemented with GlutaMAX (ThermoFisher Scientific, Warsaw, Poland) and 2mM L-glutamine adjusted to contain 1.0 mM sodium pyruvate. Human prostate (Du-145) and human breast adenocarcinoma (MCF-7) cells were cultured in Eagle medium (IIET, Wrocław, Poland), supplemented with 2 mM L-glutamine adjusted to contain 1.0 mM sodium pyruvate. Human melanoma (Hs294T) cells were cultured in Dulbecco medium (Gibco, Scotland, UK) supplemented with 2 mM L-glutamine. The normal human mammary gland cells (MCF-10A) were cultured in Ham’s F-12 medium containing 2 mM L-glutamine, 5% horse serum, epidermal growth factor EGF (100 μL/100 mL of medium), hydrocortisone (1 mL/ 100 mL of medium), insulin (100 μL/100 mL of medium) and cholera toxin (0.1 mL/100 mL of medium). All applied culture media except MCF-10A were supplemented with 10% of FBS (MV-4-11 cultured with FBS derived from Sigma-Aldrich, Chemie GmbH, Steinheim, Germany, the other cell lines FBS HyClone Thermo-Fisher Scientific, Warsaw, Poland) and streptomycin (100 µg/mL), penicillin (100 U/mL) (both from Polfa, Tarchomin, Poland). The tested cell lines were grown at 37 °C in humid atmosphere saturated with 5% CO2. In our studies were used two assays for determination the cytotoxic activity in vitro of triterpene derivatives. By dissolving 1 mg of each tested compound in 100 µL of DMSO, stock solutions at a 10 mg/mL were obtained. Next, the stock solutions were diluted in appropriate culture medium to reach the required concentrations of compounds ranging from 0.1 to 100 µg/mL. The MTT assay was used for the cytotoxicity screening against biphenotypic B myelomonocytic leukaemia (MV-4-11). The SRB assay was performed for adherent cells such as A549, Du-145, Hs294T, MCF-7 and MCF-10A. Both assays were carried as described by Wietrzyk et al.. The triterpenes in given concentration were examined in triplicates in each experiment, which was repeated 3 times. The results of anticancer activity in vitro were presented as an IC50 in µM. Cisplatin and betulin 1 were used as reference substances.

[2] = system: MCF-7 (breast adenocarcinoma); experiment: SRB antiproliferative assay on MCF-7 cells; type: cell-based, human; details: Homo sapiens, MCF7; SRB assay
Description: as §1

[3] = system: A549 (lung adenocarcinoma); experiment: SRB antiproliferative assay on A549 cells; type: cell-based, human; details: Homo sapiens, A549
Description: as §1

[4] = system: Hs294T (melanoma); experiment: SRB antiproliferative assay on Hs294T cells; type: cell-based, human; details: Homo sapiens, Hs 294T; SRB assay
Description: as §1

[5] = system: MCF-10A (normal mammary gland); experiment: SRB antiproliferative assay on MCF-10A cells; type: cell-based, human; details: Neg = negative in the concentration used
Description: as §1

[6] = system: MV-4-11 (biphenotypic B myelomonocytic leukaemia) cell line; experiment: MTT antiproliferative assay on MV-4-11 cells; type: cell-based, human; details: for IC50: Homo sapiens, MV4-11
Description: as §1

[7] = system: MCF-7/ADR cells (multidrug-resistant breast cancer); parameters: method as in PMID 25817774; details: read-out: IC50 towards MCF-7/ADR cells; cited from earlier work
[8] = system: lung A549 cell line; parameters: method as in PMID 20460723; details: cited from earlier work
[9] = parameters: method as in PMID 17851638; details: cited from earlier work
[10] = system: PC-3, Jurkat, HeLa, HepG2 and HT-29; parameters: method as in PMID 20494586; details: range over PC-3, Jurkat, HepG2, HT-29, read-out: IC50 in the tested cancer cell lines; cited from earlier work
[11] = MTT assay, Neg = negative in the concentration used

`C#CCOC(=O)O[C@H]1CC[C@@]2(C)C(CC[C@]3(C)C2CCC2C4C(C(=C)C)CC[C@]4(CO)CC[C@]23C)C1(C)C` (some centres unmarked) [Compound 13, 3-Propargyloxycarbonylbetulin] showed an IC50 [1] of 95.1 ± 16.8 µM, an IC50 [2] of 28.9 ± 4.6 µM and an IC50 [3] of 14.9 ± 2.5 µM. The IC50 [4] was 82.7 ± 8.4 µM, the “Antiproliferative Activity IC50 MCF-10A” value [5] was “Neg” and the IC50 [6, 11] was 7.4 ± 1.7 µM.

`C#CCCOC(=O)O[C@H]1CC[C@@]2(C)C(CC[C@]3(C)C2CCC2C4C(C(=C)C)CC[C@]4(CO)CC[C@]23C)C1(C)C` (some centres unmarked) [Compound 14, 3-(3-Butynyloxycarbonyl)betulin] showed an IC50 [1] of 126 ± 13.2 µM, an IC50 [2] of 39.2 ± 6.9 µM and an IC50 [3] of 33.8 ± 2.8 µM. For the same compound, the IC50 [4] was 164 ± 15.8 µM, the “Antiproliferative Activity IC50 MCF-10A” value [5] was “Neg” and the IC50 [6, 11] was 8.9 ± 0.9 µM.

In the case of `C=C(C)C1CC[C@]2(C=O)CC[C@]3(C)C(CCC4[C@@]5(C)CC[C@H](OC(=O)CC)C(C)(C)C5CC[C@]43C)C12` (some centres unmarked) [Compound 15, 3-Propanoylbetulinic aldehyde], the IC50 [6, 11] is reported as 71.8 ± 22.9 µM.

Compound `C=CC(=O)O[C@H]1CC[C@@]2(C)C(CC[C@]3(C)C2CCC2C4C(C(=C)C)CC[C@]4(C=O)CC[C@]23C)C1(C)C` (some centres unmarked) [Compound 16, 3-(2-Propenoyl)betulinic aldehyde] has an IC50 [1] of 67.1 ± 4.6 µM, an IC50 [2] of 60.4 ± 4.4 µM and an IC50 [3] of 15.1 ± 5 µM. For the same compound, the IC50 [4] was 74.4 ± 7.3 µM, the IC50 ([5]; Homo sapiens, MCF-10A) was 113 ± 11.7 µM and the IC50 [6, 11] was 5.8 ± 1.8 µM. For the same compound, the “fold more potent than 3-acetylbetulinic aldehyde 3 against MV-4-11” value ([6]; MV-4-11 cells) was 6 fold.

Compound `C=C(C)C1CC[C@]2(C=O)CC[C@]3(C)C(CCC4[C@@]5(C)CC[C@H](OC(=O)C#CC6CC6)C(C)(C)C5CC[C@]43C)C12` (some centres unmarked) [Compound 17, 3-(3-Cyclopropyl-2-propynoyl)betulinic aldehyde] has an IC50 [6, 11] of 86.7 ± 42.8 µM.

With `C=C(C)C1CC[C@]2(C=O)CC[C@]3(C)C(CCC4[C@@]5(C)CC[C@H](OC(=O)C#Cc6ccccc6)C(C)(C)C5CC[C@]43C)C12` (some centres unmarked) [Compound 18, 3-Phenylpropynoylbetulinic aldehyde] the “MV-4-11 IC50” value [6, 11] was “Neg”.

In the case of `C=C(C)C1CC[C@]2(C=O)CC[C@]3(C)C(CCC4[C@@]5(C)CC[C@H](OC(=O)C#CC)C(C)(C)C5CC[C@]43C)C12` (some centres unmarked) [Compound 19, 3-(2-Butynoyl)betulinic aldehyde], the IC50 [6, 11] is reported as 35.9 ± 4.9 µM.

`C=C(C)C1CC[C@]2(C=O)CC[C@]3(C)C(CCC4[C@@]5(C)CC[C@H](OC(=O)OCC)C(C)(C)C5CC[C@]43C)C12` (some centres unmarked) [Compound 20, 3-Ethoxycarbonylbetulinic aldehyde] gave an IC50 [6, 11] of 25.1 ± 7.2 µM.

`C=C(C)C1CC[C@]2(C=O)CC[C@]3(C)C(CCC4[C@@]5(C)CC[C@H](OC(=O)OCCC)C(C)(C)C5CC[C@]43C)C12` (some centres unmarked) [Compound 21, 3-Propoxycarbonylbetulinic aldehyde] showed an IC50 [6, 11] of 80.2 ± 14.4 µM.

Work on `C=CCOC(=O)O[C@H]1CC[C@@]2(C)C(CC[C@]3(C)C2CCC2C4C(C(=C)C)CC[C@]4(C=O)CC[C@]23C)C1(C)C` (some centres unmarked) [Compound 22, 3-Allyloxycarbonylbetulinic aldehyde] yielded an IC50 [6, 11] of 38.3 ± 4.6 µM.

`C#CCOC(=O)O[C@H]1CC[C@@]2(C)C(CC[C@]3(C)C2CCC2C4C(C(=C)C)CC[C@]4(C=O)CC[C@]23C)C1(C)C` (some centres unmarked) [Compound 23, 3-Propargyloxycarbonylbetulinic aldehyde] showed an IC50 [6, 11] of 30 ± 6.1 µM.

With `C#CCCOC(=O)O[C@H]1CC[C@@]2(C)C(CC[C@]3(C)C2CCC2C4C(C(=C)C)CC[C@]4(C=O)CC[C@]23C)C1(C)C` (some centres unmarked) [Compound 24, 3-(3-Butynyloxycarbonyl)betulinic aldehyde] the IC50 [6, 11] was 28.3 ± 7.4 µM.

In the case of `C=C(C)[C@@H]1CC[C@]2(C(=O)O)CC[C@]3(C)[C@H](CC[C@@H]4[C@@]5(C)CC[C@H](O)C(C)(C)[C@@H]5CC[C@]43C)[C@@H]12` [betulinic acid], the IC50 [7] is listed as 38.5 µM, the “IC50 against lung A549 cell line” value [8] is listed as 8.4 µg/mL (≈ 18.4 µM) and the water solubility [9] is listed as under 1 µM. For the same compound, the IC50 [10] was 12.8 to 36.4 µM.

From PMC6471197, “Biological Activity and In Silico Study of 3-Modified Derivatives of Betulin and Betulinic Aldehyde” (International Journal of Molecular Sciences, 2019)
